Common to all, as to details: Homo sapiens
Experiment [1] has as its system MT4. In words: Concentration of compound required to reduce the cellular viability in uninfected MT-4 cells by 50%. The class given is functional.
Experiment [2] relates to CEM-SS. Put plainly: Concentration of compound required to reduce the cellular viability in uninfected CEM-SS cells by 50%. The class given is functional.
Experiment [3] deals with MT4. In words: Effective concentration of compound required to reduce the cytopathic effect of HIV-1 IIIB in MT-4 cells by 50%. The class given is functional, cell-based.
Experiment [4] relates to MT4. Put plainly: Effective concentration of compound required to reduce the cytopathic effect of HIV-2ROD in MT-4 cells by 50%. The class given is functional, cell-based.
The test system of experiment [5] is CEM-SS. In words: Effective concentration of compound required to reduce the cytopathic effect of HIV-1RF in CEM-SS cells by 50%. The class given is functional, cell-based.

A value given as a limit tells only on which side of the number the result lay.

`CC(C)CCCC(C)[C@H]1CC[C@H]2[C@@H]3CCC4C[C@@H](CCC=C(c5cc(Cl)c(O)c(C(=O)O)c5)c5cc(Cl)c(O)c(C(=O)O)c5)CC[C@]4(C)[C@H]3CC[C@]12C` (stereo not given in full): the CC50 in the experiment with MT4 [1] and in the experiment with CEM-SS [2] was over 200 µM in each case.
Turning to `CC(C)CCCC(C)[C@H]1CC[C@H]2[C@@H]3CCC4C[C@@H](CCC=C(c5cc(Cl)c(OCc6ccc(-c7ccccc7C(=O)O)cc6)c(C(=O)O)c5)c5cc(Cl)c(OCc6ccc(-c7ccccc7C(=O)O)cc6)c(C(=O)O)c5)CC[C@]4(C)[C@H]3CC[C@]12C` (stereo not given in full), the values for the CC50 with MT4 [1] and with CEM-SS [2] were over 125 µM and over 200 µM, respectively. The EC50 is 12.1 µM in the experiment on MT4 [3], over 125 µM in the experiment with MT4 [4] and 5.17 µM with CEM-SS [5].
Consider `CC(C)CCCC(C)[C@H]1CC[C@H]2[C@@H]3CCC4C[C@@H](CCC=C(c5cc(Cl)c(OCc6ccccc6C(=O)O)c(C(=O)O)c5)c5cc(Cl)c(OCc6ccccc6C(=O)O)c(C(=O)O)c5)CC[C@]4(C)[C@H]3CC[C@]12C` (stereo not given in full), for which the values for the cytotoxic concentration (CC50) in the experiment on MT4 [1] and with CEM-SS [2] were 37 µM and over 316 µM, respectively. Moreover, the midpoint of the response with CEM-SS [5], the EC50, lay at 39.8 µM.
Consider `CC(C)CCCC(C)[C@H]1CC[C@H]2[C@@H]3CCC4C[C@@H](CCC=C(c5cc(Cl)c(OCc6ccc(-c7ccc(C(=O)O)cc7)cc6)c(C(=O)O)c5)c5cc(Cl)c(OCc6ccc(-c7ccc(C(=O)O)cc7)cc6)c(C(=O)O)c5)CC[C@]4(C)[C@H]3CC[C@]12C` (stereo not given in full), for which the CC50 with MT4 [1] was 80 µM; in the experiment with CEM-SS [2] it was over 100 µM. The EC50 in the experiment with MT4 [3] is over 80 µM; in the experiment with MT4 [4] it was over 80 µM; in the experiment on CEM-SS [5], over 100 µM.
As for `CC(C)CCCC(C)[C@H]1CC[C@H]2[C@@H]3CCC4C[C@@H](CCC=C(c5cc(Cl)c(OCc6ccc(-c7cccc(C(=O)O)c7)cc6)c(C(=O)O)c5)c5cc(Cl)c(OCc6ccc(-c7cccc(C(=O)O)c7)cc6)c(C(=O)O)c5)CC[C@]4(C)[C@H]3CC[C@]12C` (stereo not given in full), the CC50 was 95 µM in the experiment with MT4 [1] and over 200 µM in the experiment with CEM-SS [2]. Further, the EC50 in the experiment with MT4 [3] is 14.5 µM; in the experiment on MT4 [4], over 95 µM; in the experiment with CEM-SS [5], 6.11 µM.
For `CC(C)CCCC(C)[C@H]1CC[C@H]2[C@@H]3CCC4C[C@@H](CCC=C(c5cc(Cl)c(OCc6ccc(CC(=O)O)cc6)c(C(=O)O)c5)c5cc(Cl)c(OCc6ccc(CC(=O)O)cc6)c(C(=O)O)c5)CC[C@]4(C)[C@H]3CC[C@]12C` (stereo not given in full) the same measures were over 125 µM, 133 µM, 4.4 µM, 124 µM and 1.78 µM.
Consider `CC(C)CCCC(C)[C@H]1CC[C@H]2[C@@H]3CCC4C[C@@H](CCC=C(c5cc(Cl)c(OCc6ccc(C(=O)O)cc6)c(C(=O)O)c5)c5cc(Cl)c(OCc6ccc(C(=O)O)cc6)c(C(=O)O)c5)CC[C@]4(C)[C@H]3CC[C@]12C` (stereo not given in full), for which the CC50 was found to be 88 µM in the experiment on MT4 [1] and 72 µM in the experiment with CEM-SS [2]. In the experiment with MT4 [4], this compound had an EC50 of 22 µM.
For `CC(C)CCCC(C)[C@H]1CC[C@H]2[C@@H]3CCC4C[C@@H](CCC=C(c5cc(Cl)c(OCc6cccc(C(=O)O)c6)c(C(=O)O)c5)c5cc(Cl)c(OCc6cccc(C(=O)O)c6)c(C(=O)O)c5)CC[C@]4(C)[C@H]3CC[C@]12C` (stereo not given in full), the CC50 with MT4 [1] was 29 µM; with CEM-SS [2] it was over 316 µM.

Values taken from ChEMBL document CHEMBL1132736, “Identification of optimal anion spacing for anti-HIV activity in a series of cosalane tetracarboxylates” (Bioorg Med Chem Lett, 2000).
